Assay results published in patent publication US20080161340A1, “Tetrahydroquinilinones, tetrahydronaphthyridones and derivatives thereof” (priority 2006, published 2008).

Columns and labels:
Format in all cases: cell-based
rCB2 = molecular target: T1, rCB2 (Rattus norvegicus, UniProt Q9QZN9); test: cAMP assay, rCB2 in Table 7, agonist/inverse agonist; details: intracellular cAMP; + agonist, − inverse agonist
T1 sequence (Q9QZN9 1-360): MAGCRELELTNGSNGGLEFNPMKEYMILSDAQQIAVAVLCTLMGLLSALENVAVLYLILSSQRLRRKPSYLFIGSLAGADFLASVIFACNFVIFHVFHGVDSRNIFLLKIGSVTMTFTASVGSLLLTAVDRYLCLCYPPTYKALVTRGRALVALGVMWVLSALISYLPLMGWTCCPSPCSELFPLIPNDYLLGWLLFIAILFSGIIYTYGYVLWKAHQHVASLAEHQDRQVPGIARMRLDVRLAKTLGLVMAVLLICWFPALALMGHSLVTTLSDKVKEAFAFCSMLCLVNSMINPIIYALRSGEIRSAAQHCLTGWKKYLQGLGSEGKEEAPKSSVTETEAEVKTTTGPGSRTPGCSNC
Protocol: (§1) Receptor mediated responses were determined by measuring changes in intracellular cAMP using LANCE cAMP detection kit (cat #AD0264, PerkinElmer, Wellesley, Mass.) based on time-resolved fluorescence resonance energy transfer (TR-FRET). Changes in cAMP were determined in cells pre-incubated with IBMX (isobutyl methylxanthine) and prestimulated with NKH-477 (a water soluble forskolin derivative, cat #1603, Tocris, Ellisville, Mo.) to increase basal cAMP levels as detailed below.
(§2) On the day of the experiment, cells were spun at low speed for 5 min at room temperature. The supernatant was removed and cells were resuspended in stimulation buffer (Hanks Buffered Salt Solution/5 mM HEPES, containing 0.5 mM IBMX (cat #17018, Sigma) and 0.02% BSA (PerkinElmer, cat #CR84-100)). Cell clumps were removed by filtering through cell strainer 40 μm (BD Falcon, Discovery Labware, Bedford, Mass.) and diluted to 2×10^5 cells/mL. Antibody supplied with the LANCE cAMP immunoassay kit was then added according to the manufacturer's instructions. An aliquot of cells was taken for un-induced controls. To the remaining cells was added NKH-477 (a water soluble forskolin derivative, Tocris cat #1603) to a final concentration of 2-8 μM. Cells were then incubated for 30 min at room temperature prior to adding to Proxiplates containing test compounds (final DMSO concentration was less than 0.5%) with a Multidrop bulk dispenser, followed by a sixty minute incubation at room temperature. The response was stopped by addition of the detection mix supplied with the LANCE kit.
(§3) The reagents were allowed to equilibrate for three hours prior to reading on an Envision multi-mode detector (PerkinElmer). TR-FRET was measured using a 330-380 nm excitation filter, a 665 nm emission filter, dichroic mirror 380 nm and Z=1 mm.
(§4) Cyclic AMP concentrations in each well were back-calculated from a cAMP standard curve run concurrently during each assay. Each plate contained 16 wells of forskolin stimulated cells and 16 wells of forskolin plus CP55,940-treated. CP55,940-treated cells were treated with CP55,940 (Tocris cat. # 0949) at 1 μm and the maximal response was used as the full range (100%) standard. WIN55,212 (Tocris cat. # 1038) was used as an internal standard. Concentrations of cAMP were expressed as a percent of the difference of these two groups of wells. Concentration-response data including ECso (the concentration of compound producing 50% of the maximal response) and intrinsic activity (the percent maximal activation compared to full activation by CP55,940) were determined using a four-parameter non-linear regression algorithm (Xlfit equation 251, IDBS).

hCB2 = molecular target: T2, hCB2 (Homo sapiens, UniProt P34972); test: cAMP assay (LANCE TR-FRET) in CHO-K1 cells stably expressing hCB2, agonist/inverse agonist; details: intracellular cAMP, CHO-K1 hCB2 cells prestimulated with NKH-477; + agonist, − inverse agonist
T2 construct: host or cells: CHO-K1
T2 sequence (P34972 whole entry): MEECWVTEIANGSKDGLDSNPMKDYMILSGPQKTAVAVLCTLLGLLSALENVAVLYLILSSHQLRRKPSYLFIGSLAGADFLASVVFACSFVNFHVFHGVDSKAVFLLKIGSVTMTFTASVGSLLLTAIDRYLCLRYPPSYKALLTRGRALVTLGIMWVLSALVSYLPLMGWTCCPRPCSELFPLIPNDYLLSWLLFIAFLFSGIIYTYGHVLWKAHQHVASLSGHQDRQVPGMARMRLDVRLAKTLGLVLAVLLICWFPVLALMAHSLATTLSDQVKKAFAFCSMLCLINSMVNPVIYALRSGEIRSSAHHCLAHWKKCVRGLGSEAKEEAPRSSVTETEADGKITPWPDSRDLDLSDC
Protocol: (§5) The ability of compounds to act as agonists or inverse agonists at human CB2 and CB1 receptors (hCB2, hCB1, respectively) was determined by measuring changes in intracellular cAMP levels. Chinese Hamster Ovary (CHO-K1) cell lines stably expressing hCB2 (Genebank: X74328) or hCB1 (Genebank: X54937) were purchased from Euroscreen (Gosselies, Belgium).
(§6) Cell lines were grown in suspension in EX-CELL 302 CHO Serum-free medium (Sigma, cat #14324C) supplemented with 1% Fetal Bovine Serum, glutamine and non-essential amino-acids under 0.4 mg/mL G418 selection.
as §1, §2, §3, §4

hCB1 = molecular target: T3, hCB1 (Homo sapiens, UniProt P21554); test: cAMP assay (LANCE TR-FRET) in CHO-K1 cells stably expressing hCB1, agonist/inverse agonist; details: intracellular cAMP, CHO-K1 hCB1 cells prestimulated with NKH-477, + agonist, − inverse agonist; for EC50: read-out: hCB1 EC50 class
T3 construct: host or cells: CHO-K1
T3 sequence (P21554 whole entry): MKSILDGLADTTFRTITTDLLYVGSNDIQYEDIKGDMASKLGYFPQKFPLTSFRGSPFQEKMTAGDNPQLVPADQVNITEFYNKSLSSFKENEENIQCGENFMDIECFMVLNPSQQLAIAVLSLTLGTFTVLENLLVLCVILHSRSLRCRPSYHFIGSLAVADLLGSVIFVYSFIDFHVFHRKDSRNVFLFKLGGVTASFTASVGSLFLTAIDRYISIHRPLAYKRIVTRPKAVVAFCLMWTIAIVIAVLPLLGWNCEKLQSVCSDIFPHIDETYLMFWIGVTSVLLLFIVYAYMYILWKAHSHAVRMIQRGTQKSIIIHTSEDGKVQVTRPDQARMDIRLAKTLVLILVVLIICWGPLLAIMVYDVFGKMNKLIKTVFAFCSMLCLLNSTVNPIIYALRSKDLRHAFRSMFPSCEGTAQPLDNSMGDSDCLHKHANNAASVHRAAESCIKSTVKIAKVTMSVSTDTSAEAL
Protocol: as §5, §6, §1, §2, §3, §4

| Compound | rCB2 EC50 class (rCB2) | hCB2 EC50 class (hCB2) | EC50 (hCB1) [µM] | hCB1 EC50 class (hCB1) |
| --- | --- | --- | --- | --- |
| COc1cccc(-c2cc3c(n(CC4CCC4)c2=O)CCCC3)c1 [Compound 16, 1-(cyclobutylmethyl)-3-(3-methoxyphenyl)-5,6,7,8-tetrahydroquinolin-2(1H)-one] | +B | +B | > 10 | – |
| O=c1c(-c2ccccc2Cl)cc2c(n1CC1CCC1)CCCC2 [Compound 18, 3-(2-chlorophenyl)-1-(cyclobutylmethyl)-5,6,7,8-tetrahydroquinolin-2(1H)-one] | +B | +B | > 10 | – |
| O=c1c(-c2ccc(Cl)cc2)cc2c(n1CC1CCC1)CCCC2 [Compound 19, 3-(4-chlorophenyl)-1-(cyclobutylmethyl)-5,6,7,8-tetrahydroquinolin-2(1H)-one] | +B | +B | > 10 | – |
| O=c1c(-c2ccccc2C(F)(F)F)cc2c(n1CC1CCC1)CCCC2 [Compound 20, 1-(cyclobutylmethyl)-3-(2-(trifluoromethyl)phenyl)-5,6,7,8-tetrahydroquinolin-2(1H)-one] | +B | +B | > 10 | – |
| O=c1c(-c2cccc(Cl)c2)cc2c(n1CC1CC1)CCCC2 [Compound 22, 3-(3-chlorophenyl)-1-(cyclopropylmethyl)-5,6,7,8-tetrahydroquinolin-2(1H)-one] | −B | +B | > 10 | – |
| O=c1c(-c2ccc(C(F)(F)F)cc2)cc2c(n1CC1CCCCC1)CCCC2 [Compound 23, 1-(cyclohexylmethyl)-3-(4-(trifluoromethyl)phenyl)-5,6,7,8-tetrahydroquinolin-2(1H)-one] | −B | +B | – | +B |
| O=c1c(-c2cccc(Cl)c2)cc2c(n1CC1CCCCC1)CCCC2 [Compound 25, 3-(3-chlorophenyl)-1-(cyclohexylmethyl)-5,6,7,8-tetrahydroquinolm-2(1H)-one] | +A | +B | – | +B |
| Cn1cc(-c2cc3c(n(CC4CCC4)c2=O)CCCC3)cn1 [Compound 26, 1-(cyclobutylmethyl)-3-(1-methyl-1H-pyrazol-4-yl)-5,6,7,8-tetrahydroquinolin-2(1H)-one] | +A | +B | > 10 | – |
| COc1ncc(-c2cc3c(n(CC4CCC4)c2=O)CCCC3)c(OC)n1 [Compound 29, 1-(cyclobutylmethyl)-3-(2,4-dimethoxypyrimidin-5-yl)-5,6,7,8-tetrahydroquinolin-2(1H)-one] | +A | +B | > 10 | – |
| Cc1ccccc1Cc1cc2c(n(CC3CCC3)c1=O)CCCC2 [Compound 30, 1-(cyclobutylmethyl)-3-(2-methylbenzyl)-5,6,7,8-tetrahydroquinolin-2(1H)-one] | +A | +A | > 10 | – |
| O=c1c(Cc2ccccc2F)cc2c(n1CC1CCC1)CCCC2 [Compound 31, 1-(cyclobutylmethyl)-3-(2-fluorobenzyl)-5,6,7,8-tetrahydroquinolin-2(1H)-one] | +A | +A | > 10 | – |
| O=c1c(Cc2ccncc2)cc2c(n1CC1CCC1)CCCC2 [Compound 32, 1-(cyclobutylmethyl)-3-(pyridin-4-ylmethyl)-5,6,7,8-tetrahydroquinolin-2(1H)-one] | +B | +B | > 10 | – |
| O=c1c(Cc2ccc(F)cc2)cc2c(n1CC1CCC1)CCCC2 [Compound 33, 1-(cyclobutylmethyl)-3-(4-fluorobenzyl)-5,6,7,8-tetrahydroquinolin-2(1H)-one] | +B | +B | > 10 | – |
| O=c1c(Cc2ccccc2)cc2c(n1CC1CCC1)CCCC2 [Compound 34, 3-benzyl-1-(cyclobutylmethyl)-5,6,7,8-tetrahydroquinolin-2(1H)-one] | +B | +B | > 10 | – |
| O=c1c(-c2ccc(C(F)(F)F)cc2)cc2c(n1CC1CCC1)CCNC2 [Compound 39, 3-(4-(trifluoromethyl)phenyl)-1-(cyclobutylmethyl)-5,6,7,8-tetrahydro-1,6-naphthyridin-2(1H)-one] | +C | +C | > 10 | – |
| O=c1c(-c2cccnc2)cc2c(n1CC1CCC1)CCNC2 [Compound 40, 1-(cyclobutylmethyl)-3-(pyridin-3-yl)-5,6,7,8-tetrahydro-1,6-naphthyridin-2(1H)-one] | +B | +C | > 10 | – |
| CS(=O)(=O)N1CCc2c(cc(-c3cccc(Cl)c3)c(=O)n2CC2CCC2)C1 [Compound 41, 3-(3-chlorophenyl)-1-(cyclobutylmethyl)-6-(methylsulfonyl)-5,6,7,8-tetrahydro-1,6-naphthyridin-2(1H)-one] | +A | +A | > 10 | – |
| CC(=O)N1CCc2c(cc(-c3cccc(Cl)c3)c(=O)n2CC2CCC2)C1 [Compound 42, 6-acetyl-3-(3-chlorophenyl)-1-(cyclobutylmethyl)-5,6,7,8-tetrahydro-1,6-naphthyridin-2(1H)-one] | +A | +A | – | +C |
| CS(=O)(=O)N1CCc2c(cc(-c3ccc(C(F)(F)F)cc3)c(=O)n2CC2CCC2)C1 [Compound 43, 1-(cyclobutylmethyl)-6-(methylsulfonyl)-3-(4-(trifluoromethyl)phenyl)-5,6,7,8-tetrahydro-1,6-naphthyridin-2(1H)-one] | +B | +A | > 10 | – |
| CC(=O)N1CCc2c(cc(-c3ccc(C(F)(F)F)cc3)c(=O)n2CC2CCC2)C1 [Compound 44, 6-acetyl-1-(cyclobutylmethyl)-3-(4-(trifluoromethyl)phenyl)-5,6,7,8-tetrahydro-1,6-naphthyridin-2(1H)-one] | +B | +B | > 10 | – |
| CC(=O)N1CCc2c(cc(-c3cccnc3)c(=O)n2CC2CCC2)C1 [Compound 46, 6-acetyl-1-(cyclobutylmethyl)-3-(pyridin-3-yl)-5,6,7,8-tetrahydro-1,6-naphthyridin-2(1H)-one] | +B | +B | > 10 | – |
| CS(=O)(=O)N1CCc2c(cc(-c3cccc(Cl)c3)c(=O)n2CC2CC2)C1 [Compound 48, 3-(3-chlorophenyl)-1-(cyclopropylmethyl)-6-(methylsulfonyl)-5,6,7,8-tetrahydro-1,6-naphthyridin-2(1H)-one] | +A | +A | > 10 | – |
| CCS(=O)(=O)N1CCc2c(cc(-c3cccc(Cl)c3)c(=O)n2CC2CC2)C1 [Compound 49, 3-(3-chlorophenyl)-1-(cyclopropylmethyl)-6-(ethylsulfonyl)-5,6,7,8-tetrahydro-1,6-naphthyridin-2(1H)-one] | +B | +B | > 10 | – |
